Experimental data from US7524505B2, “Compositions and methods for dual therapies of hair graying and balding in follicular delivery systems” (Schweitzer Biotech Company Ltd., priority 2005, dated 2009).

System: hair follicle organ
Test: Hair follicle organ cultured in vitro, length of re-grown hair
Type: cell-based, mice (F1 generation of C3H mated with BALB/C)
Conditions: hair follicles cultured 12 days in the formula of amino acids and vitamins; length measured at Day 12; FIG. 7
Description: At the age of 8 weeks, the F1 generation of C3H mated with BALB/C supplies the hair follicle material. By plucking the whiskers by depilating forceps, an anagen phase of the hair follicle can be induced. After three days of whisker plucking, the mice were killed and the hair follicle samples were harvested. Each selected hair follicle was then carefully isolated from the subcutaneous fat and the connective tissue surrounding the capsule was removed under a stereo-dissection microscope with fine forceps. We picked up the intact hair follicles with average size for the next step of culture, and which is in the early anagen stage, which is determined by the hair follicle conformation. Before culture, the hair fibre was first cut out at the surrounding line of the hair follicle to make the length measurement of hair growth much more easily in the future (FIG. 7). […]
Ten hair follicles were cultured in each treatment. […] The length of the hair growth beginning from the cutting site was measured at Day 12. […]
Hair follicle was observed by the Inverted microscope (Lieca DM, IL) and captured with the image by CCD connecting with a computer. The hair length was analyzed with the computer software: Northern Eclipse image system. The data of hair length were analyzed with the Duncan's new multiple range test by one way analysis of variance (ANOVA) using the SigmaStat program (2002).

Substance: HSCF-II: recombinant fusion of human SCF, linking peptide and IGF-I; 253 amino acids, SEQ ID NO:6
- effect on hair re-growth (hair length): even better than each of SCF and IGF-I
